Key:
Assay type in all cases: cell-based, human
[1] = test system: hPSC-derived day 4 mesoderm; assay: VEGF and bFGF titration on day 4 mesoderm cultures, day 6 flow cytometry for CD34+ angioblast subpopulations
Procedure: (1A) Schematic of EB-based hPSC differentiation to venous angioblasts. (1B) Heatmap comparing kinetic gene expression profiles of day 0-8 bulk EB populations and day 8 CD34+ MACS enriched angioblasts following venous differentiation (day 4-8 10 ng/ml VEGFA, 30 ng/ml bFGF 10 μm GSI) as in (1A). High (dark) and low (light) expression levels are indicated for each gene. (1C) Representative flow cytometric analysis of day 4 KDR+CD56+CD235a-mesodermal cells and day 8 CD34+CD31 low venous angioblasts before and after MACS enrichment. […] For all qRT-PCR analysis, expression values are normalized to levels of the housekeeping gene TBP. Error bars represent SEM.
Previous work from our group (Ditadi et al., 2015) and others (Zhang et al., 2017), has shown that VEGF, bFGF, NOTCH signaling play a role in the specification of arterial and venous vascular fates in hPSC differentiation cultures. The effects of VEGF signaling in promoting arterial and venous development were assessed. To address this, different concentrations of VEGF (0 to 100 ng/ml) were added to day 4 cultures that contained low amounts of bFGF (5 ng/ml) and the resulting day 6 populations were analyzed for the presence of CD34^+CD31^+ vascular cells and CD184^+CD73^lowCD34^+ and CD184^−CD73^+CD34^+ populations that we have previously shown contain progenitors specified to arterial and venous fates respectively.

[2] = test system: tdRFP+ CD31+ CD32+ LYVE1+ cells; assay: Fenestration by scanning electron microscopy after latrunculin A stimulation
Description: FIG. 11: hPSC-Derived, In Vivo Matured LSECs are Fenestrated and Scavenge E. coli Bioparticles. (11A) Representative scanning electron microscopic images of primary human insitu vasculature imaged on the cut surface of fresh fixed liver tissue. LSECs, terminal portal venous endothelium and hepatic artery endothelium are shown for comparison of presence (indicated by white arrows) or absence of fenestrations. (11B) Representative scanning electron microscopic images of day 8 venous angioblast-derived, in vivo-matured, FACS-isolated based on indicated marker panels, overnight-cultured, treated for 30 minutes with or without fenestration (white arrows) stimulating 0.1 μg/ml Latrunculin A, fixed and processed for SEM. Imaging conditions and scale bar are indicated on each image. (11C) Quantification of fenestrated cells (>10 fenestrations arranged in a defined sieve plate cluster), endothelial cells (smooth edged cells with angiogenic lateral sprouts free from fibroblast-like adhesions), non-endothelial cells (fibroblast-like cells and rounded cells) was performed manually on the indicated numbers of cells from a total of at least 4 independent replicates pooling the data. Comparative in vitro derived cells including venous LSEC-LCs sorted as CD31+CD32+LVYE1+ on day 18, replated and cultured for an additional 10 days in addition to standard multi-donor derived HUVECs that were also quantified with and without Latrunculin A stimulation. (11D-11E) Quantification of fenestration size (longest diameter) in (11C) primary human LSECs in situ (black), venous angioblast-derived, in vivo matured and isolated LSECs with (white) and without (grey) latrunculin A stimulation. (11E) Quantification of surface area of LSECs covered by fenestrations before and after latrunculin stimulation. Error bars represent SEM. […]

arterial and venous ECs = assay: IOX2 treatment of arterial and venous LSEC-LCs (HIF1a signalling), flow cytometry and qRT-PCR
Description: FIG. 6: CD32B Expression is Regulated by Hypoxia/HIFla Signalling. […] (6B) Representative flow cytometric analysis of normoxic cultured CD31+ arterial LSEC-LCs treated with DMSO or IOX2 at increasing doses (days 12-16). (6C) qRT-PCR analysis of LSEC markers in day 16 arterial and venous LSEC-LCs cultured under normoxia conditions treated with DMSO or increasing IOX2 doses for 4 days (ANOVA with Bonferroni test, *p<0.05, comparing arterial and venous cells at give IOX2 doses). (6D) Representative flow cytometric analysis of day 16 arterial and venous CD31+ LSEC-LCs cultured under normoxic and hypoxic conditions with and without IOX2. For all qRT-PCR analysis, expression values are normalized to levels of the housekeeping gene TBP. Error bars represent SEM.
To further investigate the role of oxygen on LSEC marker expression, we next interrogated the HIFI a signaling pathway as a probable mechanistic regulator of EC gene expression.

[3] = test system: venous angioblast-derived populations; assay: LSEC-LC specification of venous angioblast-derived populations, RT-qPCR of LSEC associated markers; settings: for expression of LSEC associated markers (LYVE1, STAB2, FCGR2B, F8): treated every 2 days for 4 days, RT-qPCR of bulk populations
Procedure: (3A) Schematic of EB-based hPSC-derived day 4 mesoderm differentiation to venous angioblasts, endothelial cells and LSEC-like cells (LSEC-LCs). […] For all qRT-PCR analysis, expression values are normalized to levels of the housekeeping gene TBP. Error bars represent SEM.
The resulting bulk populations were analyzed for expression of LSEC associated markers by RT-qPCR (FIG. 3B). Based on immunofluorescence (Strauss et al., 2017), flow cytometry (Fomin et al., 2013), bulk RNA-seq (Shahani et al., 2014), and recent single cell RNA-seq of human liver (MacParland et al., 2018) studies, human LSECs are distinguished by the co-expression of surface receptors, secreted proteins, and transcription factors including, LYVE1, CD14, CD32B (FCGR2B), CD36, CD54 (ICAM1), CD73, CD144, CD206 (MRC1), STAB1, STAB2, CLEC1B, PLAVP, GATA4 and F8 among others. Additionally, they express lower levels of canonical vascular markers such as CD31(PECAM1), CD34, CD105, CD309 (KDR), and VWF than portal arterial and venous endothelial cells. As a candidate marker set we focused the analysis on expression of scavenger receptors LYVE1, STAB2, CD32B/FCGR2B, F8, and VWF.

[4] = tdRFP+ CD31+ CD32+ LYVE1+ cells, 30 minutes stimulation
[5] = bFGF up to 30 ng/ml with VEGF 100 ng/ml, days 4-6
[6] = arterial and venous ECs, normoxia, 4 days, qRT-PCR

With VEGF the “bias of CD34+ cells to arterial or venous subpopulation” value ([1]; 100 ng/ml VEGF, 5 ng/ml bFGF, day 6) was “predominantly CD184^+CD73^low arterial-like population” and the “frequency of CD34+ cells” value ([1]; VEGF 0 to 100 ng/ml added to day 4 cultures with 5 ng/ml bFGF, day 6) was “significant and dose dependant increase”.

With C/C1=C/C(=O)O[C@@H]2C[C@@H](CC[C@H](C)/C=C\C=C\CC1)O[C@@](O)([C@@H]1CSC(=O)N1)C2 [latrunculin A] the induction of fenestrations ([2]; HUVECs and extended culture venous LSEC-LCs) was “nor were they able to be induced to form fenestrations”, the “cell surface covered by stimulated fenestrations” value [2, 4] was “approximately 40%” and the “size of the fenestration type that accounts for the increase” value [2, 4] was ~60 nm.

In the case of “bFGF: bFGF (also referred to as FGF2), growth factor”, the “size of the CD34+CD184+CD73low subpopulation” value [1, 5] is reported as “decrease”, the “size of the CD34+CD184-CD73- subpopulation” value [1, 5] is reported as “increase” and the “size of the total CD34+ population” value [1, 5] is reported as “modest increase”.

With O=C(O)CNC(=O)c1c(O)c2ccccc2n(Cc2ccccc2)c1=O [IOX2] the “conversion of CD31+ ECs to LYVE1+CD32+ LSEC-LCs” value (arterial and venous ECs; 4-day application under hypoxic conditions, by day 16) was “highly efficient conversion”, the CD32 protein (arterial and venous ECs; CD31+LYVE1+ arterial ECs under elevated oxygen conditions, increasing doses, days 12-16) was “dose dependant upregulation” and the “FCGR2B and F8 expression” value (arterial and venous ECs; [6]) was “upregulated”. The LYVE1 expression (arterial and venous ECs; [6]) was “significantly downregulated” and the STAB2 expression (arterial and venous ECs; [6]) was “did not change”.

For NC(=O)c1ccc(-c2nc(-c3ccc4c(c3)OCO4)c(-c3ccccn3)[nH]2)cc1 [SB431542, 4-(4-(benzo[d][1,3]dioxol-5-yl)-5-(pyridin-2-yl)-1H-imidazol-2-yl)benzamide], the “expression of LSEC associated markers (LYVE1, STAB2, FCGR2B, F8)” value [3] was “induced the expression of STAB2 and FCGR2B but not LYVE1”.

B1: VEGFC: VEGFC growth factor, 0 or 100 ng/ml (protein, UniProt P49767 112-227, looked up)
Vascular endothelial growth …: AHYNTEILKSIDNEWRKTQCMPREVCIDVGKEFGVATNTFFKPPCVSVYRCGGCCNSEGLQCMNTSTSYLSKTLFEITVPLSQGPKPVTISFANHTSCRCMSKLDVYRQVHSIIRR
B1 was tested, and the “expression of lymphatic markers PROX1 and FLT4” value ([3]; VEGFC 100 ng/ml, 4 days, RT-qPCR) was “increased” and the “expression of LSEC associated markers (LYVE1, STAB2, FCGR2B, F8)” value [3] was “modestly enhance the expression of some LSEC markers”.
